A short description of this data set: RP, Waters ACQUITY UPLC BEH C18, 150 × 2.1 mm, 1.7 µm, 40 °C, 0.4 mL/min, estimated dead time 0.83 min; A: water + 0.1% formic acid, pH 3; B: acetonitrile; gradient (min/%B) 0/2 1.5/8 3.5/14 6/16 8/25 9.2/98 10.5/2 12/2. The settings on record: stereoisomer not certain.
Turning to `COc1cc(-c2cc(=O)c3c(O)c(C4OC(CO)C(O)C(O)C4O)c(OC4OC(COC(=O)C=Cc5cc(OC)c(O)c(OC)c5)C(O)C(O)C4O)cc3o2)ccc1O` (stereo not drawn) [isoscoparin 7-O-[6''-sinapoyl]-glucoside], the LC retention time is 7.62 min.
Then `COc1cc(C=CC(=O)OCC2OC(OC3C(c4c(O)cc5oc(-c6ccc(O)cc6)cc(=O)c5c4O)OC(CO)C(O)C3O)C(O)C(O)C2O)ccc1O` (stereo not drawn) [feruloyl-isovitexin 2''-O-glucoside], with 7.88 min; and `COc1cc(-c2cc(=O)c3c(O)cc(OC4OC(COC(=O)C=Cc5ccc(O)cc5)C(O)C(O)C4O)cc3o2)ccc1O` (stereo not drawn) [chrysoeriol 7-O-[6''-coumaroyl]-glucoside], with 10.6 min.
The figure for `O=c1cc(-c2ccc(O)cc2)oc2cc(OC3OC(CO)C(O)C(O)C3O)c(C3OC(CO)C(O)C(O)C3O)c(O)c12` (stereo not drawn) [isovitexin 7-O-glucoside (saponarin)] is 4.61 min; for `COc1cc(C=CC(=O)OCC2OC(Oc3cc(O)c4c(=O)cc(-c5cc(OC)c(O)c(OC)c5)oc4c3)C(O)C(O)C2O)cc(OC)c1O` (stereo not drawn) [sinapoyl-tricin 7-O-glucoside] it is 4.56 min; for `COc1cc(-c2cc(=O)c3c(O)c(C4OC(CO)C(O)C(O)C4OC4OCC(O)C(O)C4O)c(O)cc3o2)ccc1O` (stereo not drawn) [isoscoparin 2''-O-arabinoside] it is 6.97 min.
The figure for `O=c1cc(-c2ccc(O)cc2)oc2c(C3OC(CO)C(O)C(O)C3O)c(O)c(C3OC(CO)C(O)C(O)C3O)c(O)c12` (stereo not drawn) [isovitexin 8-C-glucoside] is 5.25 min; for `COc1cc(-c2cc(=O)c3c(O)cc(OC4OC(COC5OC(CO)C(O)C(O)C5O)C(O)C(O)C4O)cc3o2)ccc1O` (stereo not drawn) [chrysoeriol 7-O-diglucoside] it is 8.42 min.
For the molecule `O=c1cc(-c2ccc(O)c(O)c2)oc2c(C3OC(CO)C(O)C(O)C3O)c(O)c(C3OCC(O)C(O)C3O)c(O)c12` (stereo not drawn) [luteolin 6-C-arabinoside 8-C-glucoside], the LC retention time was 4.87 min.
In the case of `NC(N)=NCCCCNC(=O)C=Cc1ccc2c(c1)C(C(=O)NCCCCN=C(N)N)C(c1ccc(O)cc1)O2` (stereo not drawn) [hordatine A], the LC retention time is 4.52 min.
The figure for `CC1OC(OC2C(Oc3cc4oc(-c5ccc(O)c(O)c5)cc(=O)c4c(O)c3C3OC(CO)C(O)C(O)C3O)OC(CO)C(O)C2O)C(O)C(O)C1O` (stereo not drawn) [isoorientin 7-O-rhamnosylglucoside] is 4.69 min; for `COc1cc(C=CC(=O)OC2COC(OC3C(c4c(O)cc5oc(-c6ccc(O)cc6)cc(=O)c5c4O)OC(CO)C(O)C3O)C(O)C2O)cc(OC)c1O` (stereo not drawn) [sinapoyl-isovitexin 2''-O-arabinoside] it is 9.32 min; for `COc1cc(-c2cc(=O)c3c(O)c(C4OC(CO)C(O)C(O)C4OC4OCC(OC(=O)C=Cc5cc(OC)c(O)c(OC)c5)C(O)C4O)c(O)cc3o2)ccc1O` (stereo not drawn) [sinapoyl-isoscoparin 2''-O-arabinoside] it is 9.65 min.
The figure for `O=c1cc(-c2ccc(O)cc2)oc2cc(O)c(C3OC(CO)C(O)C(O)C3OC3OCC(O)C(O)C3O)c(O)c12` (stereo not drawn) [isovitexin 2''-O-arabinoside] is 5.62 min; for `COc1cc(C=CC(=O)NCCCCN=C(N)N)cc2c1OC(c1ccc(O)cc1)C2C(=O)NCCCCN=C(N)N` (stereo not drawn) [hordatine B] it is 4.42 min.
Regarding `COc1cc(C=CC(=O)OCC2OC(Oc3cc4oc(-c5ccc(O)c(O)c5)cc(=O)c4c(O)c3C3OC(CO)C(O)C(O)C3O)C(O)C(O)C2O)ccc1O` (stereo not drawn) [isoorientin 7-O-[6''-feruloyl]-glucoside], the LC retention time is 6.23 min.
The figure for `O=c1cc(-c2ccc(O)cc2)oc2c(C3OCC(O)C(O)C3O)c(O)c(C3OC(CO)C(O)C(O)C3O)c(O)c12` (stereo not drawn) [apigenin 6-C-glucoside-8-C-arabinoside] is 4.93 min.
The figure for `CC1OC(OC2C(Oc3cc4oc(-c5ccc(O)cc5)cc(=O)c4c(O)c3C3OC(CO)C(O)C(O)C3O)OC(CO)C(O)C2O)C(O)C(O)C1O` (stereo not drawn) [isovitexin 7-O-rhamnosylglucoside] is 4.81 min.

Source of the values: the RepoRT retention time repository.
